How the values were obtained:
Format in all cases: in vivo
[1] = tested on: ducksalad (Heteranthera limosa); assay: Test B1 flooded paddy test, ducksalad; conditions: 250 g ai/ha, Flood, applied to paddy water, 2-leaf stage, visually evaluated after 10 to 14 days
From the text: A dash (-) response means no test result.

[2] = tested on: galium (catchweed bedstraw, Galium aparine); assay: Test A1 postemergence, galium; conditions: for Plant response rating, Galium: Postemergence; for Galium plant response rating: postemergence
In short: (§1)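 Test compounds were formulated in a non-phytotoxic solvent mixture containing a surfactant. For preemergence, seeds sown in a loam soil–sand blend received a directed soil spray. For postemergence, potted plants in the same soil, 2 to 10 cm tall at the one- to two-leaf stage, were sprayed.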

corn (Zea mays) = assay: Test A1 preemergence, corn
In short: (§2)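 Postemergence species (ragweed, Palmer pigweed, wild oat) were sprayed at one- to two-leaf stage, 2 to 10 cm tall. Corn was treated preemergence by directed soil spray. Both used a loam soil/sand blend and compounds in a non-phytotoxic solvent mixture with surfactant.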

[3] = tested on: ragweed (common ragweed, Ambrosia artemisiifolia); assay: Test A1 postemergence, ragweed; conditions: for Plant response rating, Ragweed: Postemergence; for Ragweed plant response rating: postemergence
In short: as §2

soybean (Glycine max) = assay: Test A1 postemergence, soybean; conditions: for Plant response rating, Soybean: Postemergence; for Soybean plant response rating: postemergence
In short: as §1

kochia (Bassia scoparia) = assay: Test A1 preemergence, kochia
In short: (§3)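 Pre: seeds in loam/sand blend, directed soil spray. Post: potted plants, same soil, 2–10 cm, 1–2 leaf stage. Chemicals in non-phytotoxic solvent + surfactant for both.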

[4] = tested on: blackgrass (Alopecurus myosuroides); assay: Test A1 postemergence, blackgrass; conditions: Postemergence, 0 to 100 scale (0 no effect, 100 complete control)
In short: as §1

[5] = tested on: Ryegrass, Italian (Italian ryegrass, Lolium multiflorum); assay: Test A1 preemergence, Ryegrass, Italian
In short: as §3

[6] = 31 g ai/ha, 0 to 100 scale (0 no effect, 100 complete control), 10 days
[7] = 31 g ai/ha, 0 to 100 scale (0 no effect, 100 complete control)
[8] = 125 g ai/ha, 0 to 100 scale, 0 no effect, 100 complete control

Row | Structure (SMILES) | Plant response rating, Ducksalad (0 to 100 scale, 0 is no effect, 100 is complete control) [1] | Plant response rating, Galium [2, 6] | Plant response rating, Galium ([2]; 125 g ai/ha, 0 to 100 scale) | Plant response rating, Corn (corn (Zea mays); [7]) | Plant response rating, Corn (corn (Zea mays); [8]) | Plant response rating, Ragweed [3, 6] | Plant response rating, Ragweed ([3]; 125 g ai/ha, 0 to 100 scale) | Plant response rating, Soybean (soybean (Glycine max); [6]) | Plant response rating, Soybean (soybean (Glycine max); 125 g ai/ha, 0 to 100 scale) | Plant response rating, Kochia (kochia (Bassia scoparia); [7]) | Plant response rating, Kochia (kochia (Bassia scoparia); [8]) | Plant response rating, Blackgrass ([4]; 31 g ai/ha, 10 days) | Plant response rating, Blackgrass ([4]; 125 g ai/ha) | Plant response rating, Ryegrass, Italian [5, 7] | Plant response rating, Ryegrass, Italian [5, 8] | Galium plant response rating [2, 7] | Ragweed plant response rating [3, 7] | Soybean plant response rating (soybean (Glycine max); [7])
1 | Cc1c(NS(=O)(=O)C(F)(F)F)cc(C(=O)N2CCC(Cl)CC2)c(C)c1C [Compound 356] | 45 | 70 | 100 | 0 | 90 | 70 | 80 | 50 | 80 | 0 | 30 | 0 | 0 | 0 | 40 | – | – | –
2 | Cc1c(NS(=O)(=O)C(F)(F)F)cc(C(=O)N2CCC(F)(F)CC2)c(C)c1C [Compound 357] | 60 | 90 | 100 | 10 | 90 | 80 | 80 | 40 | 90 | 20 | 40 | 0 | 0 | 0 | 30 | – | – | –
3 | Cc1c(NS(=O)(=O)C(F)(F)F)cc(C(=O)N2CCC(F)CC2)c(C)c1C [Compound 358] | 0 | 70 | 100 | 0 | 50 | 80 | 80 | 50 | 70 | 20 | 30 | 0 | 0 | 0 | 30 | – | – | –
4 | Cc1c(C(=O)N2CCC(F)CC2)cc(N(COC(=O)C(C)(C)C)S(=O)(=O)C(F)(F)F)c(C)c1C [Compound 361] | 65 | 80 | 90 | 0 | 0 | 60 | 80 | 50 | 70 | 0 | 30 | 0 | 0 | 0 | 0 | – | – | –
5 | Cc1cc(C)c(N(COC(=O)C(C)(C)C)S(=O)(=O)C(F)(F)F)cc1C(=O)N1CCOCC1 [Compound 362] | 50 | 60 | 80 | 0 | 30 | 70 | 80 | 50 | 70 | 50 | 90 | 0 | 50 | 30 | 70 | – | – | –
6 | CCOC(=O)N(c1cc(C(=O)N2CCOCC2)c(C)cc1C)S(=O)(=O)C(F)(F)F [Compound 363] | 70 | 60 | 90 | 0 | 60 | 60 | 70 | 60 | 60 | 80 | 100 | 0 | 50 | 80 | 100 | – | – | –
7 | Cc1cc(C)c(N(COC(=O)C(C)(C)C)S(=O)(=O)C(F)(F)F)cc1C(=O)N1CCC(c2ccccc2)CC1 [Compound 364] | 0 | 0 | 30 | 0 | 0 | 0 | 0 | 0 | 10 | 0 | 0 | 0 | 0 | 0 | 0 | – | – | –
8 | CCOC(=O)N(c1cc(C(=O)N2CCC(c3ccccc3)CC2)c(C)cc1C)S(=O)(=O)C(F)(F)F [Compound 365] | 25 | 40 | 80 | 0 | 0 | 0 | 30 | 0 | 60 | 0 | 0 | 0 | 30 | 0 | 30 | – | – | –
9 | Cc1c(NS(=O)(=O)C(F)(F)F)cc(C(=O)N2CCC(C)CC2)c(C)c1C [Compound 366] | 65 | – | 100 | 0 | 10 | – | 80 | – | 60 | 0 | 30 | 0 | 0 | 0 | 40 | 50 | 40 | 50
10 | COC1CCN(C(=O)c2cc(NS(=O)(=O)C(F)(F)F)c(C)c(C)c2C)CC1 [Compound 367] | 80 | – | 100 | 10 | 90 | – | 70 | – | 80 | 0 | 20 | 0 | 0 | 0 | 20 | 50 | 50 | 50
11 | C#CCN(C)C(=O)c1cc(NS(=O)(=O)C(F)(F)F)c(C)c(C)c1C [Compound 368] | 60 | – | 100 | 0 | 90 | – | 80 | – | 90 | 20 | 90 | 0 | 10 | 50 | 100 | 70 | 50 | 70
12 | Cc1c(C(=O)N2CCC(C)CC2)cc(N(COC(=O)C(C)(C)C)S(=O)(=O)C(F)(F)F)c(C)c1C [Compound 369] | 65 | – | 80 | 0 | 0 | – | 80 | – | 90 | 0 | 0 | 0 | 0 | 40 | 40 | 60 | 20 | 20
13 | CCC1CC(c2cc(N(COC(=O)C(C)(C)C)S(=O)(=O)C(F)(F)F)c(C)cc2C)=NO1 (stereo not drawn) [Compound 376] | 70 | – | 30 | 0 | 0 | – | 40 | – | 100 | 0 | 80 | 0 | 50 | 0 | 30 | 10 | 20 | 20
